The term clearance denotes the volume of plasma or blood freed of the substance per unit of time. Broadly, the half-life is the time needed for the level to fall by half in the phase considered.

The data set is described as follows: Pharmacokinetic parameters after intravenous administration to rats. In kind it is in vivo. The conditions noted are these: male, Han/Wistar, plasma, rat, i.v. 20 nmol/kg; for MRT: read-out: Mean Residence Time; for half-life: read-out: Terminal half-life (converted). As to the method:
Pharmacokinetic parameters of the test compounds were determined after intravenous administration to Han/Wistar rats. The acylated GLP-1 analogue semaglutide was also tested for comparison purposes.
Male Wistar rats were obtained from Charles River (Germany) weighing approximately 180 to 210 g at time of arrival at the test facility. Rats were caged in European standard rat cages type IV with light cycle of 12-hour dark and 12-hour light. During the study rats were housed in standard rat cages type III. Both diet Altromin 1324 (Altromin, Germany) and water was administered ad libitum during the whole experimental period. The animals were housed in the test facility for at least 4 days in order to assure proper acclimatization.
The compounds were first dissolved in 0.1% aqueous ammonia to a nominal concentration of 2 mg/ml, and then diluted to the desired dosing strength (10 μM) in sterile PBS containing 25 mM phosphate buffer, pH 7.4. Intravenous injections corresponding to 20 nmol/kg were given via a lateral tail vein.
Blood samples (200 μl) were collected from the periorbital plexus at time points 0.08, 0.25, 0.5, 1, 2, 4, 8, 24, 32 and 48 h post dosing into K3EDTA tubes and centrifuged for 5 minutes at 4° C. within 20 minutes of sampling. Plasma samples (>100 μl) were transferred to 96-well PCR plates, immediately frozen and kept at −20° C. until analysed for plasma concentration for the respective GLP-1-glucagon compound using LC-MS/MS. Individual plasma concentration-time profiles were analysed by a non-compartmental approach using ToxKin™ version 3.2 (Unilog IT Services), and the resulting pharmacokinetic parameters were determined.

For `CC[C@H](C)[C@H](NC(=O)[C@H](Cc1ccccc1)NC(=O)[C@H](CC(=O)O)NC(=O)[C@H](CCCCN)NC(=O)[C@H](C)NC(=O)[C@H](C)NC(=O)[C@H](CCCNC(=N)N)NC(=O)[C@H](CCC(=O)O)NC(=O)[C@H](CC(=O)O)NC(=O)[C@H](CC(C)C)NC(=O)[C@H](Cc1ccc(O)cc1)NC(=O)[C@H](CCCCN)NC(=O)[C@H](CO)NC(=O)[C@H](Cc1ccc(O)cc1)NC(=O)[C@H](CC(=O)O)NC(=O)[C@H](CO)NC(=O)[C@@H](NC(=O)[C@H](Cc1ccccc1)NC(=O)[C@@H](NC(=O)CNC(=O)[C@H](CCC(N)=O)NC(=O)C1(NC(=O)[C@@H](N)Cc2c[nH]cn2)CCC1)[C@@H](C)O)[C@@H](C)O)C(=O)N[C@@H](CCCCNC(=O)CNC(=O)CNC(=O)[C@H](CO)NC(=O)CNC(=O)[C@H](CO)NC(=O)CNC(=O)CC[C@H](NC(=O)CCCCCCCCCCCCCCCCC(=O)O)C(=O)O)C(=O)N[C@@H](Cc1c[nH]c2ccccc12)C(=O)N[C@@H](CC(C)C)C(=O)N[C@@H](CCC(=O)O)C(=O)N[C@@H](CO)C(=O)N[C@@H](C)C(N)=O` [Compound 5], the clearance was determined as 3.57 mL/h/kg, the MRT worked out at 28.5 h and the half-life was 22.8 h.

For the compound `CC[C@H](C)[C@H](NC(=O)[C@H](Cc1ccccc1)NC(=O)[C@H](CC(=O)O)NC(=O)[C@H](CCCCN)NC(=O)[C@H](C)NC(=O)[C@H](C)NC(=O)[C@H](CCCNC(=N)N)NC(=O)[C@H](CCC(=O)O)NC(=O)[C@H](CC(=O)O)NC(=O)[C@H](CC(C)C)NC(=O)[C@H](Cc1ccc(O)cc1)NC(=O)[C@H](CCCCN)NC(=O)[C@H](CO)NC(=O)[C@H](Cc1ccc(O)cc1)NC(=O)[C@H](CC(=O)O)NC(=O)[C@H](CO)NC(=O)[C@@H](NC(=O)[C@H](Cc1ccccc1)NC(=O)[C@@H](NC(=O)CNC(=O)[C@H](CCC(N)=O)NC(=O)C1(NC(=O)[C@@H](N)Cc2c[nH]cn2)CCC1)[C@@H](C)O)[C@@H](C)O)C(=O)N[C@@H](CCC(=O)O)C(=O)N[C@@H](Cc1c[nH]c2ccccc12)C(=O)N[C@@H](CC(C)C)C(=O)N[C@@H](CCC(=O)O)C(=O)N[C@@H](CCCCNC(=O)CNC(=O)CNC(=O)[C@H](CO)NC(=O)CNC(=O)[C@H](CO)NC(=O)CNC(=O)CC[C@H](NC(=O)CCCCCCCCCCCCCCCCC(=O)O)C(=O)O)C(=O)N[C@@H](C)C(N)=O` [Compound 6], the clearance came to 5.98 mL/h/kg, the MRT amounted to 23.7 h and the half-life was 18.1 h.
